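All cell lines were grown in 96-well plates and treated with compound for 48 hours. GI50: concentration for 50% inhibition of growth. At the TGI there is no net growth.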
Legend:
Assay in all cases: growth of human tumour cells (NCI), 48 h
SK-MEL-5 melanoma = system: SK-MEL-5 melanoma
SN12C renal = system: SN12C renal
NCI/ADR-RES ovarian = system: NCI/ADR-RES ovarian
HL-60(TB) leukemia = system: HL-60(TB) leukemia
T-47D breast = system: T-47D breast
HS 578T breast = system: HS 578T breast
K-562 leukemia = system: K-562 leukemia
SNB-19 CNS = system: SNB-19 CNS
CAKI-1 renal = system: CAKI-1 renal
OVCAR-3 ovarian = system: OVCAR-3 ovarian
MOLT-4 leukemia = system: MOLT-4 leukemia
OVCAR-4 ovarian = system: OVCAR-4 ovarian
MALME-3M melanoma = system: MALME-3M melanoma
EKVX NSCLC = system: EKVX NSCLC
SK-MEL-2 melanoma = system: SK-MEL-2 melanoma
HT29 colon = system: HT29 colon
HCT-15 colon = system: HCT-15 colon
U251 CNS = system: U251 CNS
SF-539 CNS = system: SF-539 CNS
KM12 colon = system: KM12 colon
PC-3 prostate = system: PC-3 prostate
SR leukemia = system: SR leukemia
SF-268 CNS = system: SF-268 CNS
UACC-257 melanoma = system: UACC-257 melanoma
ACHN renal = system: ACHN renal
HCC-2998 colon = system: HCC-2998 colon
NCI-H226 lung = system: NCI-H226 lung
IGROV1 ovarian = system: IGROV1 ovarian
786-0 renal = system: 786-0 renal
A549 NSCLC = system: A549 NSCLC
UO-31 renal = system: UO-31 renal
UACC-62 melanoma = system: UACC-62 melanoma
NCI-H522 lung = system: NCI-H522 lung
SF-295 CNS = system: SF-295 CNS
LOX IMVI melanoma = system: LOX IMVI melanoma
M14 melanoma = system: M14 melanoma
NCI-H23 lung = system: NCI-H23 lung
SNB-75 CNS = system: SNB-75 CNS
SK-MEL-28 melanoma = system: SK-MEL-28 melanoma
MCF7 breast = system: MCF7 breast
SW-620 colon = system: SW-620 colon
DU-145 prostate = system: DU-145 prostate
RXF 393 renal = system: RXF 393 renal
CCRF-CEM leukemia = system: CCRF-CEM leukemia
A498 renal = system: A498 renal
MDA-MB-468 breast = system: MDA-MB-468 breast
MDA-MB-435 = system: MDA-MB-435
COLO 205 colon = system: COLO 205 colon
TK-10 renal = system: TK-10 renal
HCT-116 colon = system: HCT-116 colon
HOP-62 NSCLC = system: HOP-62 NSCLC
NCI-H460 lung = system: NCI-H460 lung
OVCAR-8 ovarian = system: OVCAR-8 ovarian
SK-OV-3 ovarian = system: SK-OV-3 ovarian
MDA-MB-231 breast = system: MDA-MB-231 breast
HOP-92 NSCLC = system: HOP-92 NSCLC
RPMI-8226 leukemia = system: RPMI-8226 leukemia
BT-549 breast = system: BT-549 breast
OVCAR-5 ovarian = system: OVCAR-5 ovarian

O=C(NO)c1ccc(Cn2ccc3c(Nc4ccccc4)ncnc32)cc1
GI50 (SK-MEL-5 melanoma): 1.06 µM
TGI (SK-MEL-5 melanoma): 4.05 µM
GI50 (SN12C renal): 3.29 µM
TGI (SN12C renal): 7.05 µM
GI50 (NCI/ADR-RES ovarian): 0.636 µM
TGI (NCI/ADR-RES ovarian): 2.03 µM
GI50 (HL-60(TB) leukemia): 0.984 µM
TGI (HL-60(TB) leukemia): 3.89 µM
GI50 (T-47D breast): 2.42 µM
TGI (T-47D breast): > 29 µM
GI50 (HS 578T breast): 1.7 µM
TGI (HS 578T breast): 17.5 µM
GI50 (K-562 leukemia): 1.14 µM
TGI (K-562 leukemia): > 29 µM
GI50 (SNB-19 CNS): 3.26 µM
TGI (SNB-19 CNS): 7.51 µM
GI50 (CAKI-1 renal): 2.17 µM
TGI (CAKI-1 renal): 6.91 µM
GI50 (OVCAR-3 ovarian): 3.06 µM
TGI (OVCAR-3 ovarian): 12.1 µM
GI50 (MOLT-4 leukemia): 0.93 µM
TGI (MOLT-4 leukemia): 7.6 µM
GI50 (OVCAR-4 ovarian): 5.79 µM
TGI (OVCAR-4 ovarian): > 29 µM
GI50 (MALME-3M melanoma): 0.869 µM
TGI (MALME-3M melanoma): 4.1 µM
GI50 (EKVX NSCLC): 2.75 µM
TGI (EKVX NSCLC): 6.9 µM
GI50 (SK-MEL-2 melanoma): 4.75 µM
TGI (SK-MEL-2 melanoma): 11.4 µM
GI50 (HT29 colon): 1.43 µM
TGI (HT29 colon): 14.1 µM
GI50 (HCT-15 colon): 3.59 µM
TGI (HCT-15 colon): 7.81 µM
GI50 (U251 CNS): 2.78 µM
TGI (U251 CNS): 15.8 µM
GI50 (SF-539 CNS): 2.55 µM
TGI (SF-539 CNS): 6.77 µM
GI50 (KM12 colon): 3.7 µM
TGI (KM12 colon): 10.9 µM
GI50 (PC-3 prostate): 2.82 µM
TGI (PC-3 prostate): 21.5 µM
GI50 (SR leukemia): 0.817 µM
TGI (SR leukemia): > 29 µM
GI50 (SF-268 CNS): 4.06 µM
TGI (SF-268 CNS): 9.64 µM
GI50 (UACC-257 melanoma): 2.3 µM
TGI (UACC-257 melanoma): 9.79 µM
GI50 (ACHN renal): 1.95 µM
TGI (ACHN renal): 5.92 µM
GI50 (HCC-2998 colon): 2.62 µM
TGI (HCC-2998 colon): 6.12 µM
GI50 (NCI-H226 lung): 3.88 µM
TGI (NCI-H226 lung): 16 µM
GI50 (IGROV1 ovarian): 2.34 µM
TGI (IGROV1 ovarian): 6.22 µM
GI50 (786-0 renal): 3.78 µM
TGI (786-0 renal): 8.97 µM
GI50 (A549 NSCLC): 3.1 µM
TGI (A549 NSCLC): 15.5 µM
GI50 (UO-31 renal): 2.42 µM
TGI (UO-31 renal): 6.38 µM
GI50 (UACC-62 melanoma): 1.04 µM
TGI (UACC-62 melanoma): 4.42 µM
GI50 (NCI-H522 lung): 1.07 µM
TGI (NCI-H522 lung): 4.87 µM
GI50 (SF-295 CNS): 1.73 µM
TGI (SF-295 CNS): 5.74 µM
GI50 (LOX IMVI melanoma): 1.78 µM
TGI (LOX IMVI melanoma): 5.44 µM
GI50 (M14 melanoma): 2.99 µM
TGI (M14 melanoma): 10.1 µM
GI50 (NCI-H23 lung): 1.47 µM
TGI (NCI-H23 lung): 5.08 µM
GI50 (SNB-75 CNS): 1.04 µM
TGI (SNB-75 CNS): 6.11 µM
GI50 (SK-MEL-28 melanoma): 2.04 µM
TGI (SK-MEL-28 melanoma): 6.29 µM
GI50 (MCF7 breast): 3.8 µM
TGI (MCF7 breast): 12.4 µM
GI50 (SW-620 colon): 0.863 µM
TGI (SW-620 colon): 3.31 µM
GI50 (DU-145 prostate): 1.41 µM
TGI (DU-145 prostate): > 29 µM
GI50 (RXF 393 renal): 0.934 µM
TGI (RXF 393 renal): 4.02 µM
GI50 (CCRF-CEM leukemia): 1.41 µM
TGI (CCRF-CEM leukemia): > 29 µM
GI50 (A498 renal): 1.31 µM
TGI (A498 renal): 6.79 µM
GI50 (MDA-MB-468 breast): 0.718 µM
TGI (MDA-MB-468 breast): 2.76 µM
GI50 (MDA-MB-435): 1.22 µM
TGI (MDA-MB-435): 5.03 µM
GI50 (COLO 205 colon): 1.43 µM
TGI (COLO 205 colon): 5.73 µM
GI50 (TK-10 renal): 1.42 µM
TGI (TK-10 renal): 12 µM
GI50 (HCT-116 colon): 0.993 µM
TGI (HCT-116 colon): 5.6 µM
GI50 (HOP-62 NSCLC): 2.2 µM
TGI (HOP-62 NSCLC): 7.63 µM
GI50 (NCI-H460 lung): 1.33 µM
TGI (NCI-H460 lung): 8.45 µM
GI50 (OVCAR-8 ovarian): 1.29 µM
TGI (OVCAR-8 ovarian): 8.8 µM
GI50 (SK-OV-3 ovarian): 2 µM
TGI (SK-OV-3 ovarian): 9.87 µM
GI50 (MDA-MB-231 breast): 1.94 µM
TGI (MDA-MB-231 breast): 6.68 µM
GI50 (HOP-92 NSCLC): 1.74 µM
TGI (HOP-92 NSCLC): 7.35 µM
GI50 (RPMI-8226 leukemia): 1.1 µM
TGI (RPMI-8226 leukemia): > 29 µM
GI50 (BT-549 breast): 7.71 µM
TGI (BT-549 breast): 15.4 µM
GI50 (OVCAR-5 ovarian): 1.02 µM
TGI (OVCAR-5 ovarian): 5.07 µM
